Results from paper PMC4869175, “Evidence that phytochrome functions as a protein kinase in plant light signalling” (Nature Communications, 2016).

Columns and labels:
Assay in all cases: Binding parameters of ATP by Scatchard plot using BODIPY-FL-ATP
[1] = target: T1, D422R AsphyA mutant (Avena sativa, UniProt P06593, D422R); settings: Scatchard plot with BODIPY-FL-ATP; result in words
T1 construct: After preparing purified full-length AsphyA mutants; made in house; host or cells: Pichia pastoris GS115
T1 sequence (P06593 whole entry D422R): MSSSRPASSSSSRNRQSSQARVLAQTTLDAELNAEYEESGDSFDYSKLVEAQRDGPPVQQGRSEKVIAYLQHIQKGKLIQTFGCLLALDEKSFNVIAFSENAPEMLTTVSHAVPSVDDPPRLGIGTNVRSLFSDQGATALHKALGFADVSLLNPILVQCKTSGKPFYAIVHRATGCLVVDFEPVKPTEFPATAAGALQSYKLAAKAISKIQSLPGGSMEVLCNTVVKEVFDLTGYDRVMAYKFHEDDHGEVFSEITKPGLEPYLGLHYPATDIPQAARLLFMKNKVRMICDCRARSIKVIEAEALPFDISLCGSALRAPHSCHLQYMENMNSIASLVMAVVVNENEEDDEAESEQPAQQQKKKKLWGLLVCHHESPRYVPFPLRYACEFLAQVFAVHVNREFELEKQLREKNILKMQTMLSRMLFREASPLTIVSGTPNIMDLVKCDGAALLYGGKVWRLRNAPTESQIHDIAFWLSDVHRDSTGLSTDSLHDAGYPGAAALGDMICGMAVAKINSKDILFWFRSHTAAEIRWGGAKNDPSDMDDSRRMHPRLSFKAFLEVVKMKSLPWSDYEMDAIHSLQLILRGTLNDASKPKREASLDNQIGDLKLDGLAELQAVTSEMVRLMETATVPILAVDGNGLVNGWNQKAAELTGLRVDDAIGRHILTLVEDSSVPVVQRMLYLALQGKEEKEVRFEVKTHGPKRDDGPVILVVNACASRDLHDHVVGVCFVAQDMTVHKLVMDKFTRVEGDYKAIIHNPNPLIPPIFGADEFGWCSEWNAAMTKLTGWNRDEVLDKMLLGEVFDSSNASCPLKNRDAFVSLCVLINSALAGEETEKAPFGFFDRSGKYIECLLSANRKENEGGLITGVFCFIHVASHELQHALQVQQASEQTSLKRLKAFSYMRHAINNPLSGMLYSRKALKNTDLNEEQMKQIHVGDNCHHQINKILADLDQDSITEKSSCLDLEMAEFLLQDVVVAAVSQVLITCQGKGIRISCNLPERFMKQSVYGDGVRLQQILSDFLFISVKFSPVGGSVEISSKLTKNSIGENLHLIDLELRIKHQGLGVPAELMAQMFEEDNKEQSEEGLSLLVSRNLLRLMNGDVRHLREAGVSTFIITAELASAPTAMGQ
Description: (§1) To estimate dissociation constant (Kd) and the number of binding sites (n) of ATP in AsphyA proteins, an ATP analogue BODIPY-FL-ATP (BODIPY FL 2′-(or-3′)-O-(N-(2-aminoethyl)urethane) adenosine triphosphate; Molecular Probes) was used. 0.5 μM AsphyA proteins were incubated with increasing concentration of BODIPY-FL-ATP (0.5–5 μM) for 10 min at 30 °C, and free (unbound) ATP analogue was separated from the ATP analogue-protein complex by using Amicon Ultra Centrifugal Filter with MWCO of 10,000 Da for 5 min at 4,000g. The spectrophotometric absorbance was then measured to determine the BODIPY-FL-ATP concentrations within flow-through and the complex solutions by using Shimadzu UV-1800 spectrophotometer. […] The concentrations of BODIPY-FL-ATP were also double-checked by measuring the emission intensity of BODIPY fluorophore at the excitation wavelength of 500 nm and emission wavelength of 515 nm. The fluorescence of free BODIPY-FL-ATP in the absence of any protein component was used as a linear standard curve. The Kd and n values were then calculated by a Scatchard plot of r/[BODIPY-FL-ATP]free versus r, where r is the molar ratio of [BODIPY-FL-ATP]bound to [AsphyA]total.
(§2) Supplementary Figure 12. Determination of binding parameters of ATP in AsphyA proteins. The number of binding sites (n) and dissociation constant (Kd) of ATP in AsphyA proteins were determined by Scatchard plots using an ATP analogue, BODIPY-FL-ATP (BODIPY® FL 2′-(or-3′)-O-(N-(2-aminoethyl)urethane) adenosine triphosphate). The n and Kd values were calculated from the slopes (-1/Kd) and x-axis intercepts (n) of the Scatchard plot of r/[BODIPY-FL-ATP]free versus r, where r was the molar ratio of [BODIPY-FL-ATP]bound to [AsphyA]total. The n values of full-length (FL) AsphyA and photosensory core (66-610) were both calculated at around one per polypeptide, and the Kd values were calculated at approximately 0.87 × 10^-6 M for FL-AsphyA, 0.72 × 10^-6 M for […]
(§3) level, possibly due to too low ATP binding.
(§4) (1 picture or pasted object on this page, not shown here)

[2] = target: T2, K411L AsphyA mutant (Avena sativa, UniProt P06593, K411L)
T2 construct: After preparing purified full-length AsphyA mutants; made in house; host or cells: Pichia pastoris GS115
T2 sequence (P06593 whole entry K411L): as the sequence (P06593 whole entry D422R) above, with K411L, R422D counted along it
Description: as §1, §2, §3, §4

[3] = target: T3, T418D AsphyA mutant (Avena sativa, UniProt P06593, T418D)
T3 construct: After preparing purified full-length AsphyA mutants; made in house; host or cells: Pichia pastoris GS115
T3 sequence (P06593 whole entry T418D): as the sequence (P06593 whole entry D422R) above, with T418D, R422D counted along it
Description: as §1, §2, §3, §4

[4] = target: T4, full-length AsphyA (Avena sativa, UniProt P06593)
T4 construct: Full-length phytochrome genes of AsPHYA; made in house; host or cells: Pichia pastoris GS115
T4 sequence (P06593 1-1129): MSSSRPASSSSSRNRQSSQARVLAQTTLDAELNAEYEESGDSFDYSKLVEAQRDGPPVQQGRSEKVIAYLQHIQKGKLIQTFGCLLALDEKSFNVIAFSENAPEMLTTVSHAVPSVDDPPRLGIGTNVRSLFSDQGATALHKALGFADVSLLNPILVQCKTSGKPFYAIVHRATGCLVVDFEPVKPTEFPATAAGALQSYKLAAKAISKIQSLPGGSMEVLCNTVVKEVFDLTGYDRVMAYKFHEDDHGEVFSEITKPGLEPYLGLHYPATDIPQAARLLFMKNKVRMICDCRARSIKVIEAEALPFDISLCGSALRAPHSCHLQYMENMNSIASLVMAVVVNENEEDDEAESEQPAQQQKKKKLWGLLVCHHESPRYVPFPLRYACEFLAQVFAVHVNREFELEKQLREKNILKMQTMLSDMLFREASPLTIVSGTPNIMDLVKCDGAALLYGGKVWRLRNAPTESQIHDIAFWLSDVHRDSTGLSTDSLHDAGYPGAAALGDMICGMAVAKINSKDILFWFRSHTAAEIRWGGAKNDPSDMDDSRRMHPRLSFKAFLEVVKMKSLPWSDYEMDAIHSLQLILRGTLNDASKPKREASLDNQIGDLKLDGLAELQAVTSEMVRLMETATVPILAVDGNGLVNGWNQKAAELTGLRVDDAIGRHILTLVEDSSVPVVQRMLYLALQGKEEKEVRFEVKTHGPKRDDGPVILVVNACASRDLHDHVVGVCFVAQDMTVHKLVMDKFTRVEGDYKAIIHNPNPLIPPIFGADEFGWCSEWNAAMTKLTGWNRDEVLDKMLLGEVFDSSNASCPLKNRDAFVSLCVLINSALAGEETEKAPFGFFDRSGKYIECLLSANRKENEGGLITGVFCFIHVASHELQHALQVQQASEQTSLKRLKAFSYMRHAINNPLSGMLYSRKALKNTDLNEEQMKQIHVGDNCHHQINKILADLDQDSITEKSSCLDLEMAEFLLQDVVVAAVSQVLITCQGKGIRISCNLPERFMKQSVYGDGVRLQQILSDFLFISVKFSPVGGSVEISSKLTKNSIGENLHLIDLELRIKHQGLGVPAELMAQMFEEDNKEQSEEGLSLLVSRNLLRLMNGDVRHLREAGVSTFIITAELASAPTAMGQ
Description: as §1, §2, §3, §4

[5] = target: T5, photosensory core of AsphyA (66-610) (Avena sativa, UniProt P06593)
T5 construct: the PAS-GAF-PHY photosensory core (66–610aa) were also cloned into pPIC3.5K; made in house; host or cells: Pichia pastoris GS115
T5 sequence (P06593 66-610): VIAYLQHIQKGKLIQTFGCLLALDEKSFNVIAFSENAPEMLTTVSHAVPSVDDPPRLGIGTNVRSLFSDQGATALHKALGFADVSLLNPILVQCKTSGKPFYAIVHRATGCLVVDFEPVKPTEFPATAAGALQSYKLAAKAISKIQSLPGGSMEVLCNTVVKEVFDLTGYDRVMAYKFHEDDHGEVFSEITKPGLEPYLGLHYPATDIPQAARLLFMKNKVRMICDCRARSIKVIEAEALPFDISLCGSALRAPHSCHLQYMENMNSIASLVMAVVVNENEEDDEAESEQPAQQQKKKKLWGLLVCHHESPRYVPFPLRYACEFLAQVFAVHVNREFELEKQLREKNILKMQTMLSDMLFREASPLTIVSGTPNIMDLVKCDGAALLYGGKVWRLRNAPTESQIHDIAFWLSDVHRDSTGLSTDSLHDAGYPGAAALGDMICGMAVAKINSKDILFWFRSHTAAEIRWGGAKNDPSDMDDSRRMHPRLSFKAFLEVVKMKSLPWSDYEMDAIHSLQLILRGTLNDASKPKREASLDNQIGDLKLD
Description: as §1, §2, §3, §4

[6] = Scatchard plot with BODIPY-FL-ATP
[7] = Scatchard plot, 0.5 μM protein, BODIPY-FL-ATP 0.5–5 μM, 10 min at 30 °C, read-out: dissociation constant (Kd) of ATP

**Q.** How did the “dissociation constant (Kd) of ATP” value [1] turn out when `CC1=CC(C)=[N+]2C1=Cc1ccc(CCC(=O)NCCNC(=O)O[C@H]3[C@@H](O)[C@H](n4cnc5c(N)ncnc54)O[C@@H]3COP(=O)(O)OP(=O)(O)OP(=O)(O)O)n1[B-]2(F)F` [BODIPY-FL-ATP, BODIPY FL 2′-(or-3′)-O-(N-(2-aminoethyl)urethane) adenosine triphosphate] was run?
**A.** unable to obtain the Kd value

**Q.** What about the Kd [2] of the same compound?
**A.** ~1320 nM

**Q.** What about the Kd [3] of the same compound?
**A.** ~4760 nM

**Q.** What about the “number of binding sites (n) of ATP” value [4, 6] of the same compound?
**A.** approximately one

**Q.** And the Kd [4, 7]?
**A.** ~870 nM

**Q.** What about the “number of binding sites (n) of ATP” value [5, 6] of the same compound?
**A.** approximately one

**Q.** And the Kd [5, 7]?
**A.** 720 nM
